Literature values in patent publication US7326418B2, “Identification of novel factors that block programmed cell death or apoptosis by targeting JNK” (University of Chicago, priority 2001, dated 2008).
Structures can show the parent of a compound that is named as a salt.

Conditions: in vivo, cited from earlier work

SMILES | oral absorption | half-life of elimination | secreted into the bile [%] | half-life of active metabolite
N.N.[Cl][Pt][Cl] [Cisplatin] | not absorbed orally | – | – | –
COc1cccc2c1C(=O)c1c(O)c3c(c(O)c1C2=O)C[C@@](O)(C(C)=O)C[C@@H]3O[C@H]1C[C@H](N)[C@H](O)[C@H](C)O1 [daunorubicin, 5,12-Naphthacenedione, (8S-cis)-8-acetyl-10-[(3-amino-2,3,6-trideoxy-a-L-lyxo-hexanopyranosyl)oxy]-7,8,9,10-tetrahydro-6,8,11-trihydroxy-10-methoxy-, hydrochloride] | poor | about 19 hr | ~40 | –
COc1cccc2c1C(=O)c1c(O)c3c(c(O)c1C2=O)C[C@@](O)([C@H](C)O)C[C@@H]3O[C@H]1C[C@H](N)[C@H](O)[C@H](C)O1 [daunorubicinol] | – | – | – | about 27 hr
